In ChEMBL document CHEMBL2069185, “Eunicidiol, an anti-inflammatory dilophol diterpene from Eunicea fusca” (J Nat Prod, 2012):

Experiments:
Mus musculus [1] = experiment: Toxicity in CD1 mouse model phorbol myristate acetate-induced ear edema model at 0.1 mg/ear administered topically at right ear 1 hr before phorbol myristate acetate challenge and measured 24 hrs post dose; format: organism-based; conditions: in vivo, topical_or_ocular
Mus musculus [2] = experiment: Antiinflammatory activity in CD1 mouse ear edema model assessed as reduction in phorbol myristate acetate-induced edema administered topically at right ear 1 hr before phorbol myristate acetate challenge and measured 6 to 24 hrs post dose; format: functional
Mus musculus [3] = experiment: Antiinflammatory activity in CD1 mouse ear edema model assessed as reduction in phorbol myristate acetate-induced edema at 0.1 mg/ear administered topically at right ear 1 hr before phorbol myristate acetate challenge and measured 24 hrs post dose; format: functional

SMILES: C=C1CC/C=C(\C)CC[C@H](/C(C)=C/C=C/C(C)(C)O)C[C@H]1O (relative stereo)
- Activity (Mus musculus [1]): Non-toxic

SMILES: C=C[C@@]1(C)CC[C@H](/C(C)=C/C=C/C(C)(C)O)C[C@@H]1C(=C)C [FUSCOL]
- Activity (Mus musculus [1]): Non-toxic

SMILES: CC(=O)O[C@@H]1[C@@H](O[C@H]2CC[C@H](C)[C@@]3(C)C[C@@H](/C(C)=C/C=C/C(C)(C)O)CC[C@H]23)OC[C@@H](O)[C@H]1O
- inhibition (INH) (Mus musculus [2]): 85%

SMILES: C/C1=C\C[C@@H](/C(C)=C/C=C/C(C)(C)O)CC/C(C)=C/CC1 [EUNICOL]
- inhibition (INH) (Mus musculus [3]): 0.1%
- Activity (Mus musculus [1]): Non-toxic

SMILES: C=C[C@@]1(C)CC[C@H](/C(C)=C/C=C/C(C)(C)O[C@@H]2OC[C@@H](O)[C@@H](O)[C@@H]2O)C[C@@H]1C(=C)C [FUSCOSIDE B]
- inhibition (INH) (Mus musculus [2]): 52%
